SMILES strings stand for the structures.

What all share (format): cell-based
The target of assay [1] is T1, human TLR8 (Homo sapiens, UniProt Q9NR97).
T1 construct: host or cells: HEK-Blue cells (HEK293-derived reporter line)
T1 sequence (Q9NR97 27-1041): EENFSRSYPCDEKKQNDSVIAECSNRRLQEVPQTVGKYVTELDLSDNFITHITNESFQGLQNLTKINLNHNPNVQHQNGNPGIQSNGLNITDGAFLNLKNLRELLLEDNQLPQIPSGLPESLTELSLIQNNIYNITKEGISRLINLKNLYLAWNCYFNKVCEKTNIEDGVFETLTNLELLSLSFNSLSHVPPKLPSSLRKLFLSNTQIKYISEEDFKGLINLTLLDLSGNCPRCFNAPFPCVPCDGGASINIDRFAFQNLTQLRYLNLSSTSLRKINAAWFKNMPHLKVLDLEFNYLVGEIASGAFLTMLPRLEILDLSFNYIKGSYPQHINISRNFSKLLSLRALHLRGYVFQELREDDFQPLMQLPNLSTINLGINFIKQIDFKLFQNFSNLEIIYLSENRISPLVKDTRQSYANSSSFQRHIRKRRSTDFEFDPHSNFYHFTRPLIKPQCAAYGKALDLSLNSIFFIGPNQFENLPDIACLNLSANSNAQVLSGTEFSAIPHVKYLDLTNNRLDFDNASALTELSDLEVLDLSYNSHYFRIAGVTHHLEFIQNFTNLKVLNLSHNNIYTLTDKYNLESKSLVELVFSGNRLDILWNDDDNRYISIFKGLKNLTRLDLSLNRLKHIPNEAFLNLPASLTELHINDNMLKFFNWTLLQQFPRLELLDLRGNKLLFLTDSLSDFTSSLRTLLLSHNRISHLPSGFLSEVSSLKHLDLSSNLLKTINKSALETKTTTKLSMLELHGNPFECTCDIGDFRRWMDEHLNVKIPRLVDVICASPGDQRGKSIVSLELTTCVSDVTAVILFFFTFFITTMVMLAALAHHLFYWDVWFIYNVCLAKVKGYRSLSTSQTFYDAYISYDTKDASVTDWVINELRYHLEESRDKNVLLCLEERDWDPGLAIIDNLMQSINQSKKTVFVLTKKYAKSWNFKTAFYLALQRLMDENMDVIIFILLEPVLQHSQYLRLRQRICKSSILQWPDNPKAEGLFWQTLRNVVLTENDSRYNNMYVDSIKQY
The assay can be described thus: TLR8 inhibition reporter assay (HEK-Blue cells, SEAP reporter, R848 stimulation). To be noted: HEK-Blue cells overexpressing human TLR8, SEAP reporter, R848 15.9 μM. An outline of the steps: (§1)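 Percent inhibition of agonist-induced SEAP secretion in HEK-Blue cells after 22 h at 37 °C. Stimuli: 7.5 μM gardiquimod, 15.9 μM R848, 5 nM ODN2006 for TLR7, TLR8 and TLR9, added after 30 min compound exposure over a 0.05 nM–50 μM range.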
(In a reporter assay the amount or activity of a reporter protein is the signal.)

Assay [2] has as its target T2, human TLR9 (Homo sapiens, UniProt Q9NR96).
T2 construct: host or cells: HEK-Blue cells (HEK293-derived reporter line)
T2 sequence (Q9NR96 26-1032): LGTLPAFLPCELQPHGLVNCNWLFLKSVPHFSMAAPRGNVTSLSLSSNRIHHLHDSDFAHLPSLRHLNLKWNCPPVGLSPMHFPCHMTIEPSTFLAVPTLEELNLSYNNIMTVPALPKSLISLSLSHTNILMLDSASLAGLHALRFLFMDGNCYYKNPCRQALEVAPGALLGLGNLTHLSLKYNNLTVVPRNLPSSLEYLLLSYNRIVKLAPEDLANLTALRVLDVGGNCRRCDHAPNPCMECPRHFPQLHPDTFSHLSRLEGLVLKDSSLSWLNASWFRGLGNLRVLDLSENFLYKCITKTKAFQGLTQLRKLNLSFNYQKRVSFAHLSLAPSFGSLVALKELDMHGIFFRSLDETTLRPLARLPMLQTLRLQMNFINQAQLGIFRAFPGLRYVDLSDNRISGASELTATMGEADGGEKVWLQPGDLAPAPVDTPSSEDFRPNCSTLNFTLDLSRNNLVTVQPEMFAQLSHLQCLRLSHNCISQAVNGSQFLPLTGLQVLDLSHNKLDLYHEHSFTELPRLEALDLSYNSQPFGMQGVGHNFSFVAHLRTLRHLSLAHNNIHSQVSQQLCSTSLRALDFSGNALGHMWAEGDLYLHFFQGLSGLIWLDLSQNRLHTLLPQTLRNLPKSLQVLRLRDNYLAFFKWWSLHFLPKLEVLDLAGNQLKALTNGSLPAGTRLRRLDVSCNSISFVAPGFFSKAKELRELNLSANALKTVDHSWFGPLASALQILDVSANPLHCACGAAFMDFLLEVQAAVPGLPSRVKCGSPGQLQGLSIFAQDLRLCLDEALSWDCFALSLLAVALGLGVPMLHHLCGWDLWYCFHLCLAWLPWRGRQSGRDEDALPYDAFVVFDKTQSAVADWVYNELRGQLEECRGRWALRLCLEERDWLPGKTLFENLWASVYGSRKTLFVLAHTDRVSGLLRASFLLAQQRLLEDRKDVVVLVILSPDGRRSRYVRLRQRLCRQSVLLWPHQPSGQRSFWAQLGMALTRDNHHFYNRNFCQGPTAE
The assay is described as follows: TLR9 inhibition reporter assay (HEK-Blue cells, SEAP reporter, ODN2006 stimulation). To be noted: HEK-Blue cells overexpressing human TLR9, SEAP reporter, ODN2006 5 nM. An outline of the steps:
as §1

For assay [3], the target named is T3, human TLR7 (Homo sapiens, UniProt Q9NYK1).
T3 construct: host or cells: HEK-Blue cells (HEK293-derived reporter line)
T3 sequence (Q9NYK1 27-1049): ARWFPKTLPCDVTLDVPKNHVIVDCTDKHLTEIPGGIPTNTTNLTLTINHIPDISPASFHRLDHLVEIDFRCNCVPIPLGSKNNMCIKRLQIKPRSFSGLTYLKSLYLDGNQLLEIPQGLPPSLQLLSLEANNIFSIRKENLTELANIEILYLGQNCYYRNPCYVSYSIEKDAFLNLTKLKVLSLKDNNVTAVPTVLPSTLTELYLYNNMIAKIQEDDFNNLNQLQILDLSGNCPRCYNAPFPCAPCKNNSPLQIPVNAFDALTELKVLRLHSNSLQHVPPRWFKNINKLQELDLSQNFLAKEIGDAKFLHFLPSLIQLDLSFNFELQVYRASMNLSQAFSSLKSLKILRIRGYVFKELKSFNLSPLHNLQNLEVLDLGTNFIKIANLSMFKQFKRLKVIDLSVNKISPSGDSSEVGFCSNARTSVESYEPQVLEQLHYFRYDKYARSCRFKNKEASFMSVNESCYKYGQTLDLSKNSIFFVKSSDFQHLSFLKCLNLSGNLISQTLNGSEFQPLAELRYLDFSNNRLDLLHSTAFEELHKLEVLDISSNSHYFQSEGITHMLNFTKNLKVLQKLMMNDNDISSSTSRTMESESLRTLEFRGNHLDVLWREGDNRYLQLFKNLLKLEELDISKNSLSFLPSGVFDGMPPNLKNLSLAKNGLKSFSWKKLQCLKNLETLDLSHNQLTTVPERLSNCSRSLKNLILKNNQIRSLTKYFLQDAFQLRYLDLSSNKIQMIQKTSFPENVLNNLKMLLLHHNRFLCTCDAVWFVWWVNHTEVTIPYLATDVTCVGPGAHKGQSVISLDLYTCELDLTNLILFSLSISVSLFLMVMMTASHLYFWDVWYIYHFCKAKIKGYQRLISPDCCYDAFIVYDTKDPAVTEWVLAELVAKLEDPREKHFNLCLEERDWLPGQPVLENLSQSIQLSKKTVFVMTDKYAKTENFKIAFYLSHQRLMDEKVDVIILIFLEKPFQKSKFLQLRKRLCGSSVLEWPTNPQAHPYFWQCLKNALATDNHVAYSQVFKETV
The assay is described as follows: TLR7 inhibition reporter assay (HEK-Blue cells, SEAP reporter, gardiquimod stimulation). The following applies: HEK-Blue cells overexpressing human TLR7, SEAP reporter, gardiquimod 7.5 μM. The procedure, abridged: as §1

Broadly, the IC50 is the midpoint of a concentration-inhibition curve. High values mean lower potency, low ones higher potency. Consider `Cc1cc(-c2[nH]c3ccc(C4CCN(C(=O)CN5[C@@H]6CC[C@H]5COC6)CC4)cc3c2C(C)C)cn2nnnc12` [Example 479, 2-((1R,5S)-3-oxa-8-azabicyclo[3.2.1]octan-8-yl)-1-(4-(3-isopropyl-2-(8-methyltetrazolo[1,5-a]pyridin-6-yl)-1H-indol-5-yl)piperidin-1-yl)ethan-1-one], for which the results for the IC50 in assay [1], in assay [2] and in assay [3] were < 0.1 µM, 1 to 50 µM and < 0.1 µM, respectively.

With `CNCCN1CCC(c2ccc3[nH]c(-c4ccc5c(ccn5C)c4)c(C)c3c2)CC1` [Example 672, 2-(4-(1′,3-dimethyl-1H,1′H-[2,5′-biindol]-5-yl)piperidin-1-yl)-N-methylethan-1-amine], the IC50 is > 3.13 µM in assay [1], 0.1 to 1 µM in assay [2] and > 50 µM in assay [3].

In the case of `Cc1cc(-c2[nH]c3ccc(C4CCN(CC(=O)N(C)C)CC4)cc3c2C(C)C)cc2cccnc12` [Example 435, 2-(4-(3-isopropyl-2-(8-methylquinolin-6-yl)-1H-indol-5-yl)piperidin-1-yl)-N,N-dimethylacetamide], the figures for the half-maximal inhibitory concentration (IC50) in assay [1], in assay [2] and in assay [3] were < 0.1 µM, 1 to 50 µM and < 0.1 µM, respectively.

With `CC(C)c1c(-c2ccc3ncoc3c2)[nH]c2ccc(C3CCN(CC(=O)N(C)C)CC3)cc12` [Example 288, 2-(4-(2-(benzo[d]oxazol-6-yl)-3-isopropyl-1H-indol-5-yl)piperidin-1-yl)-N,N-dimethylacetamide], the IC50 is < 0.1 µM in assay [1], 1 to 50 µM in assay [2] and < 0.1 µM in assay [3].

Take `CC(C)c1c(-c2c[nH]c3ncccc23)[nH]c2ccc(C3CCNCC3)cc12` [Example 17, 3-(3-isopropyl-5-(piperidin-4-yl)-1H-indol-2-yl)-1H-pyrrolo[2,3-b]pyridine]: the IC50 in assay [1] was < 0.1 µM; in assay [2], 0.1 to 1 µM; in assay [3], < 0.1 µM.

For the molecule `Cc1cc(-c2[nH]c3ccc(C4CCN(Cc5ccn(C)n5)CC4)cc3c2C(C)C)cc2cnnn12` [Example 891, 5-(3-isopropyl-5-(1-((1-methyl-1H-pyrazol-3-yl)methyl)piperidin-4-yl)-1H-indol-2-yl)-7-methyl-[1,2,3]triazolo[1,5-a]pyridine], the values for the IC50 in assay [1], in assay [2] and in assay [3] were < 0.1 µM, 0.1 to 1 µM and < 0.1 µM, respectively.

With `FC(F)Cc1c(-c2ccnc3[nH]ncc23)[nH]c2ccc(C3CCNCC3)cc12` [Example 178, 4-(3-(2,2-difluoroethyl)-5-(piperidin-4-yl)-1H-indol-2-yl)-1H-pyrazolo[3,4-b]pyridine], the IC50 in assay [1] is 0.1 to 1 µM; in assay [2], 1 to 50 µM; in assay [3], 0.1 to 1 µM.

Regarding `CCOC(=O)N1CCC(N2CCC(c3ccc4[nH]c(-c5ccnc6[nH]ncc56)c(C(C)C)c4c3)CC2)C(C)C1` (stereo not drawn) [Example 835, ethyl 4-(3-isopropyl-2-(1H-pyrazolo[3,4-b]pyridin-4-yl)-1H-indol-5-yl)-3′-methyl-[1,4′-bipiperidine]-1′-carboxylate], the IC50 in assay [1] was 0.1 to 1 µM; in assay [2] it was 1 to 50 µM; in assay [3] it was 0.1 to 1 µM.

Take `CC(C)c1c(-c2ccnc3c2NC(=O)CO3)[nH]c2ccc(C3CCNCC3)cc12` [Example 68, 8-(3-isopropyl-5-(piperidin-4-yl)-1H-indol-2-yl)-1H-pyrido[2,3-b][1,4]oxazin-2(3H)-one]: the IC50 in assay [1], in assay [2] and in assay [3] was 1 to 50 µM throughout.

`Cc1cc2nc(-c3[nH]c4ccc(C5CCN(CC(=O)N(C)C)CC5)cc4c3C(C)C)c(F)cn2n1` [Example 438, 2-(4-(2-(6-fluoro-2-methylpyrazolo[1,5-a]pyrimidin-5-yl)-3-isopropyl-1H-indol-5-yl)piperidin-1-yl)-N,N-dimethylacetamide]: the IC50 was 0.1 to 1 µM in assay [1], 1 to 50 µM in assay [2] and 0.1 to 1 µM in assay [3].

Take `Cc1cc(-c2[nH]c3ccc(C4CCN(C(=O)CN(C)C)CC4)cc3c2C(C)C)cc2cncn12` [Example 531, 2-(dimethylamino)-1-(4-(3-isopropyl-2-(5-methylimidazo[1,5-a]pyridin-7-yl)-1H-indol-5-yl)piperidin-1-yl)ethan-1-one]: the IC50 in assay [1] was < 0.1 µM; in assay [2], 0.1 to 1 µM; in assay [3] it was < 0.1 µM.

As for `CCOc1cc(-c2[nH]c3ccc(C4CCN(CC(=O)NC)CC4)cc3c2C(C)C)cc2ncnn12` [Example 351, 2-(4-(2-(5-ethoxy-[1,2,4]triazolo[1,5-a]pyridin-7-yl)-3-isopropyl-1H-indol-5-yl)piperidin-1-yl)-N-methylacetamide], the IC50 in assay [1] was < 0.1 µM; in assay [2] it was 1 to 50 µM; in assay [3], < 0.1 µM.

For the molecule `CC(C)c1c(-c2ccc3ncsc3c2)[nH]c2ccc(C3CCN(CC(=O)N(C)C)CC3)cc12` [Example 298, 2-(4-(2-(benzo[d]thiazol-6-yl)-3-isopropyl-1H-indol-5-yl)piperidin-1-yl)-N,N-dimethylacetamide], the IC50 in assay [1] is < 0.1 µM; in assay [2], 1 to 50 µM; in assay [3] it was < 0.1 µM.

(Values after patent US11739098B2 (BRISTOL-MYERS SQUIBB COMPANY, priority 2017, dated 2023).)
